# In ChEMBL document CHEMBL4414640, “Antiproliferative Pterocarpans and Coumestans from Lespedeza bicolor” (2019):
# Active and inactive are the calls of the source. No cut-off for these calls is given here.
# Experiments:
# [1] = system: Jurkat; assay: Antiproliferative activity against human Jurkat cells at 5 to 100 uM incubated for 48 hrs by MTS assay; type: functional, cell-based
# [2] = system: Jurkat; assay: Induction of apoptosis in human Jurkat cells at 10 uM incubated for 24 to 48 hrs by phase contrast microscopic method; type: functional, cell-based
# [3] = system: Jurkat; assay: Induction of apoptosis in human Jurkat cells assessed as viable cells at 10 uM incubated 48 hrs by annexin-V and 7AAD staining based flow cytometry (reference value: 91.9%); type: functional; settings: read-out: Activity
# [4] = system: Jurkat; assay: Induction of apoptosis in human Jurkat cells assessed as early apoptotic cells at 10 uM incubated 48 hrs by annexin-V and 7AAD staining based flow cytometry (reference value: 3.16%); type: functional
# [5] = system: Jurkat; assay: Induction of apoptosis in human Jurkat cells assessed as late apoptotic cells at 10 uM incubated 48 hrs by annexin-V and 7AAD staining based flow cytometry (reference value: 3.78%); type: functional
# [6] = system: Jurkat; assay: Induction of apoptosis in human Jurkat cells assessed as necrotic cells at 10 uM incubated 48 hrs by annexin-V and 7AAD staining based flow cytometry (reference value: 1.16%); type: functional
# [7] = system: Jurkat; assay: Induction of apoptosis in human Jurkat cells assessed as downregulation in BCL2 protein expression at 10 uM incubated for 48 hrs by Western blot analysis; type: functional, cell-based
# [8] = system: Jurkat; assay: Induction of apoptosis in human Jurkat cells assessed as increase in PARP cleavage at 10 uM incubated for 48 hrs by Western blot analysis; type: functional, cell-based
# [9] = system: Jurkat; assay: Induction of mitochondrial membrane potential loss in human Jurkat cells assessed as membrane potential at 10 uM incubated for 48 hrs by TMRM staining based flow cytometric analysis (reference value: 94.1%); type: functional
# [10] = system: Jurkat; assay: Induction of cell cycle arrest in human Jurkat cells assessed as accumulation at G1 phase at 10 uM incubated for 48 hrs by PI staining based cell counting method (reference value: 71.4%); type: functional
# [11] = system: Jurkat; assay: Induction of cell cycle arrest in human Jurkat cells assessed as accumulation at S phase at 10 uM incubated for 48 hrs by PI staining based cell counting method (reference value: 12.2%); type: functional
# [12] = system: Jurkat; assay: Induction of cell cycle arrest in human Jurkat cells assessed as accumulation at G2/M phase at 10 uM incubated for 48 hrs by PI staining based cell counting method (reference value: 16.7%); type: functional
structure (smiles),measurement,setting,value
COc1c(CC=C(C)C)c(O)cc2oc(=O)c3c4cc(O)c(O)c(CC=C(C)C)c4oc3c12,Activity,[1],Active
same,Activity,[2],Active
same,viability at 10 µM,[3],37.6%
same,Activity,[4],12.3%
same,Activity,[5],46.7%
same,Activity,[6],3.4%
same,Activity,[7],Active
same,Activity,[8],Active
same,Activity,[9],12.9%
same,Activity,[10],82.3%
same,Activity,[11],10.9%
same,Activity,[12],7.05%
COc1cc2c(cc1O)OC1c3c(OC)cc(O)c(C/C=C(\C)CCC=C(C)C)c3OCC21 (stereo unspecified),Activity,[1],Active
same,Activity,[2],Active
same,viability at 10 µM,[3],43.9%
same,Activity,[4],11.3%
same,Activity,[5],40.4%
same,Activity,[6],4.43%
same,Activity,[7],Active
same,Activity,[8],Active
same,Activity,[9],46.8%
same,Activity,[10],82.1%
same,Activity,[11],8.78%
same,Activity,[12],9.3%
COc1c(C/C=C(\C)CCC=C(C)C)c(O)cc2c1[C@@H]1Oc3c(cc(O)c4c3C=CC(C)(C)O4)[C@@H]1CO2,Activity,[1],Active
COc1c(CC=C(C)C)c(O)cc2c1[C@@H]1Oc3c(cc(O)c4c3C=CC(C)(C)O4)[C@@H]1CO2,Activity,[1],Active
COc1c(C/C=C(\C)CCC=C(C)C)c(O)cc(O)c1-c1oc2c3c(c(O)cc2c1C=O)OC(C)(C)C=C3,Activity,[1],Active
COc1c(CC=C(C)C)c(O)cc2c1[C@@H]1Oc3c(ccc(O)c3CC=C(C)C)[C@@H]1CO2,Activity,[1],Active
COc1c(CC=C(C)C)c(O)cc2oc(=O)c3c4cc(O)c5c(c4oc3c12)C=CC(C)(C)O5,Activity,[1],Active
COc1c(CC=C(C)C)c(O)cc(O)c1-c1oc2c3c(c(O)cc2c1C=O)OC(C)(C)C=C3,Activity,[1],Active
COc1c(CC=C(C)C)c(O)cc2c1[C@@H]1Oc3c(ccc4c3C=CC(C)(C)O4)[C@@H]1CO2,Activity,[1],Active
